Experimental data: article PMC11522292, “TamGen: drug design with target-aware molecule generation through a chemical language model” (Nature Communications, 2024)

How the values were obtained:
ClpP1P2 complex in Mtb [1] = target: T1, ClpP1P2 complex in Mtb (Mycobacterium tuberculosis, UniProt P9WPC5); assay: ClpP1P2 peptidase activity assay, dose-response and IC50 determination; format: biochemical
Description: (§1) ClpP1P2 complex in Mtb can catalyze the hydrolysis of small peptides. Following previous protocols, we measure the in vitro inhibition of ClpP peptidase activity by monitoring the cleavage of fluorogenic peptide Ac-Pro-Lys-Met-AMC[65]–[67].
(§2) The solution is pre-incubated at room temperature for 2 hours. Then, 20 μL substrate buffer with Ac-Pro-Lys-Met-AMC is added (final concentration of Ac-Pro-Lys-Met-AMC is 10 μM; reaction buffer is the same with the above). Fluorescence (Ex/Em: 380/ 440 nm) is recorded for 120 min at 37 °C.
To determine IC50, candidate inhibitors are assayed at 9 or 10 gradient concentrations. […] IC50 is determined by the change of recorded fluorescence (as RFU) and gradient dilution of inhibitors concentration. Non-linear fit (log(inhibitor) vs. normalized response) is used for IC50 curve fitting.

ClpP1P2 complex in Mtb [2] = target: T1, ClpP1P2 complex in Mtb; assay: ClpP1P2 peptidase activity assay, single-dose response; format: biochemical; settings: read-out: Inhibition rate relative to Bortezomib
Description: as §1, §2

[3] = source data Figure4b, screening hits
[4] = source data Figure4b, synthesized compounds

T1 sequence (P9WPC5 whole entry, looked up, one chain of several): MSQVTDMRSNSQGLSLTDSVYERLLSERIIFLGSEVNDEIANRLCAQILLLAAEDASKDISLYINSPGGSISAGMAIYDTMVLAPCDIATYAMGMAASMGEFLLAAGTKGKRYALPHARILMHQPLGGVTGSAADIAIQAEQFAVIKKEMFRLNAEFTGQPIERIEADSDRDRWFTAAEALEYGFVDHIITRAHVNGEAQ

| SMILES | IC50 (ClpP1P2 complex in Mtb [1]; [3]) | IC50 (ClpP1P2 complex in Mtb [1]; [4]) | other results |
| --- | --- | --- | --- |
| O=C(Nc1ccc(F)cc1)Nc1ccc(Br)c(C(F)(F)F)c1 [Analog-001] | 17.2 µM | – | – |
| O=C(Nc1ccccc1F)Nc1ccccc1NC(=O)c1ccccc1Cl [Analog-002] | 19.9 µM | – | – |
| NS(=O)(=O)c1ccc(NC(=O)Nc2cc(Cl)cc(Cl)c2)cc1 [Analog-003] | 10.1 µM | – | inhibition at 20 µM (ClpP1P2 complex in Mtb [2]): 48% |
| Oc1c(Cc2ccccc2)ccc2ccccc12 [Analog-004] | 19.6 µM | – | – |
| CN(C)S(=O)(=O)c1ccc(C(=O)N2C(=O)c3cccc(N)c3C2=O)cc1 [Analog-005] | 1.88 µM | – | IC50 (ClpP1P2 complex in Mtb [1]; Mtb ClpP, dose-response assay, Fig. 4b and text): 1.9 µM |
| NS(=O)(=O)c1ccc(NC(=O)Nc2ccc(Cl)c(C(F)(F)F)c2)cc1 [Syn-A003-01] | – | 20.3 µM | – |
| Cc1ccc(C(=O)N2C(=O)c3ccccc3C2=O)cc1 [Syn-A005-01] | – | 5.34 µM | – |
| CN(C)S(=O)(=O)c1ccc(C(=O)N2C(=O)c3ccccc3C2=O)cc1 [Syn-A005-02] | – | 3.4 µM | – |
